# Literature values, collected in PMC10049421, “Anticancer Activity of Sunitinib Analogues in Human Pancreatic Cancer Cell Cultures under Normoxia and Hypoxia” (International Journal of Molecular Sciences, 2023).
# Tests used:
# PANC-1 cells = settings: PANC-1, 5 μM; cited from earlier work
# MIA PaCa-2 cell line [1] = system: MIA PaCa-2 cell line; design: method as in PMID 30341797; settings: MIA PaCa-2, 5 μM; cited from earlier work
# PANC-1 cell monolayer = settings: PANC-1, 1 μM, 24 h and 48 h; cited from earlier work
# MIA PaCa-2 cell line [2] = system: MIA PaCa-2 cell line; design: method as in PMID 26176887; settings: MIA PaCa-2, 1 μM, 24 h and 48 h; cited from earlier work
compound,measurement,setting,value
Nc1ccn([C@@H]2O[C@H](CO)[C@@H](O)C2(F)F)c(=O)n1 [gemcitabine],colony formation,PANC-1 cells,statistically significantly reduced
same,colony formation,MIA PaCa-2 cell line [1],statistically significantly reduced
same,'wounds' compared to the control,PANC-1 cell monolayer,did not show a significant difference
same,'wounds' compared to the control,MIA PaCa-2 cell line [2],did not show a significant difference
